The values below come from patent US9623063B2, “Extracts from Ajuga reptans cell lines, their preparation and use” (I.R.B. ISTITUTO DI RICERCHE BIOTECNOLOGICHE S.r.l., priority 2005, dated 2017).

In brackets after ≈: the same amount, converted by molar mass. Where two headings read alike, the source gives them in different places.

Assay [1] can be described thus: Fe2+-induced lipid peroxidation (thiobarbituric acid). It counts as biochemical. From the text:
Ajuga reptans Extracts 1 and 2, prepared as described in examples 1 and 2, and isoteupolioside have been used to assess in vitro antioxidant action with specific oxygen radical generating systems such as the superoxide anion (O2^−), the hydroxyl radical (HO^−), the peroxynitrite radical (ONOO^−) and the inhibition of lipid peroxidation. The superoxide anion has been measured by a chemiluminescent assay based on the hypoxanthine (HPX)/xanthine oxidase (XOD) reaction using the Lumimax Superoxide Anion Detection Kit (Stratagene, La Jolla, Calif., USA) and following the manufacturer's instructions. Hydroxyl radical scavenger activity has been measured by means of the Fenton reaction for the production of hydroxyl radicals and chemiluminescent dosage (using a Victor^3 chemiluminometer, Wallac, Finland) with luminol. Peroxynitrite ions have been determined by means of dosage with a spontaneous generator of peroxynitrites (3-morpholinosidnonimine hydrochloride; SIN-1) and a stable reagent for the nitroxyl ions (2-(4-carboxyphenyl)-4,4,5,5-tetramethylimidazoline-1-oxyl-3-oxide potassium salt PTIO spin trap) then dosed by means of electron spin resonance (ESR) using a Nippon Denshi JES-FR30. […]

Assay [2] relates to white blood cells. In words: Luminol dependent chemiluminescence of PMA-stimulated white blood cells. It counts as cell-based. The settings on record: Homo sapiens, 0.5 h, read-out: White blood cell chemiluminescence (IC50 mg/ml). The procedure:
Anti-inflammatory activity has been assessed by measuring luminol dependent chemiluminescence generated by free radicals released from whole blood and from white blood cells. The assay has been performed using the following protocol: 10 μl of fresh human blood is mixed with 0.980 ml of Hanks saline solution containing 5×10^−5 M luminol and the test sample (at various concentrations). The chemiluminescent response is recorded continuously for 30 minutes at a temperature of 37° C. The results are expressed as IC50 (mg/ml), i.e. as the minimum sample concentration inhibiting chemiluminescence by 50% with respect to the control. To isolate white blood cells (WBC) from whole blood one proceeds in the following manner: 1 ml of fresh blood is layered onto a Hipaque gradient (p=1.119) and centrifuged at 250×g for 60 minutes at room temperature. Following centrifugation, the pellet containing the white blood cells is washed twice, using a large volume of cold Hanks saline solution. Finally, the washed WBCs are resuspended in 0.1 ml di HBSS containing foetal calf serum. 10^6 WBC are added to a chemiluminometer cuvette. 10 μl of PMA (final concentration equal to 10 nM) are added to induce the formation of free radicals. The chemiluminescent response is recorded continuously for 30 minutes at a temperature of 37° C. […]

Assay [3] is described as follows: Metal chelation, spectrophotometric (Cu2+). It counts as physicochemical. The text has this: (§1) The chelating activities of Ajuga reptans extracts in relation to Fe^2+, Fe^3+, Cu^2+ and Ni^2+ metal ions has been determined by means of spectrophotometric measurements using a Shimadzu 1770 UV spectrophotometer. The activities of chelating agents depends on the association constant (equilibrium) of their reactions with the metals according to the following reaction:
(§2) [formula] wherein Keq is the equilibrium constant equal to the ratio of concentrations at equilibrium of a complex and a product of equilibrium concentrations of metal ions and a chelator:
(§3) The method used for determining chelating activities is well documented in the literature (Korkina L G, Afarras'er I B. Antioxidant and chelating properties of flavonoids. Adv. Pharmacol., 1997, 38:151-63). The results are expressed as Keq (M^−1) calculated for a pure phenylpropanoid. This way the chelating activity against ferrous (Fe II), ferric (Fe III), copper (Cu II) and nickel ions has been calculated.

Assay [4] can be described thus: Metal chelation, spectrophotometric (Ni2+). It counts as physicochemical.
Source text: as §1, §2, §3

Assay [5] relates to tyrosinase. In words: Tyrosinase inhibition, oxidation of L-tyrosine to L-DOPA. It counts as biochemical. The settings on record: 250 μg/ml. From the text: The enzyme tyrosinase catalyses the reactions leading to melanin biosynthesis from tyrosine. […] Substances inhibiting tyrosinase activity produce a clearing/bleaching effect on the skin, since they block melanin synthesis. The method used to determine the inhibition of tyrosinase activity in the oxidation reaction of L-tyrosine to L-DOPA is that described in Kim et al. […] Biol. Pharm. […] The method applied for determination of the inhibition of tyrosinase activity in the conversion of L-DOPA to DOPAquinone is that described in Masamoto et al. (Mushroom tyrosinase inhibitory activity of esculetin isolated from seeds of Euphorbia lathyris L. Biosci. Biotechnol. Biochem., 67(3), 631-634, 2003).

The test system of assay [6] is Candida albicans ATCC 2091. In words: Multiple dilution assay, growth in culture broth. It counts as cell-based. As to conditions: for T0 (CFU/ml) / T7d (CFU/ml) / T14d (CFU/ml) / T21d (CFU/ml) / T28d (CFU/ml): 30° C.; for T7d (CFU/ml): 7 days; for T14d (CFU/ml): 14 days; for T21d (CFU/ml): 21 days; for T28d (CFU/ml): 28 days. The procedure: (§4) To the purpose of detecting any antimicrobial activity of the Ajuga reptans extract and the individual phenylpropanoid isoteupoloside (FPD) and teupolioside (FPA), an assay has been prepared, generally known as multiple dilution assay, with the following microbial strains: Pseudomonas aeruginosa ATCC 9027; Candida albicans ATCC 2091. The phenylpropanoids FPD, FPA and the Extract 2 of Ajuga reptans were assayed at the concentrations of 0.5 mg/ml, 2 mg/ml and 5 mg/ml. The microbial strains for the test were inoculated in culture broths (in Triptone soy broth medium) containing the substances to be assayed at the concentrations described above. In parallel with these tests, culture broths containing the microbial strain alone have been prepared (controls). The culture-broths have been incubated at 30° C. for a period of 28 days. […] A certain number of serial dilutions have been prepared for each sample in order to determine the microbial load of each culture-broth. Each dilution has been assayed in triplicate on solid medium. Then number of CFUs reported in the table is the mean of the counts performed on the triplicate assays.

Assay [7] deals with Pseudomonas aeruginosa ATCC 9027. In words: Multiple dilution assay, growth in culture broth. As to conditions: for T0 (CFU/ml) / T7d (CFU/ml) / T14d (CFU/ml) / T21d (CFU/ml) / T28d (CFU/ml): 30° C.; for T7d (CFU/ml): 7 days; for T14d (CFU/ml): 14 days; for T21d (CFU/ml): 21 days; for T28d (CFU/ml): 28 days. It counts as cell-based. The procedure:
as §4

[8] abbreviates: calculated for a pure phenylpropanoid.

Consider `CC1OC(OC2C(O)C(COC(=O)C=Cc3ccc(O)c(O)c3)OC(OCCc3ccc(O)c(O)c3)C2O)C(OC2OC(CO)C(O)C(O)C2O)C(O)C1O` (stereo not drawn) [Isoteupolioside, isoteupolioside], for which the “Lipid peroxidation (IC50)” value in assay [1] stood at 9.14 µg/mL. The IC50 in assay [2] amounted to 0.4 mg/mL (≈ 508 µM). Further, the “Cu^2+ (Keq, M^−1)” value in assay [3] worked out at 70000 ± 20000 M⁻¹. The “Ni^2+ (Keq, M^−1)” value in assay [4] amounted to 2631 ± 373 M⁻¹. In addition, the “Test L-tyrosine-DOPA inhibitory activity (%)” value in assay [5] was 30.9%. In assay [6] (0.5 mg/ml), the “T0 (CFU/ml)” value is 9.7 × 10^5 CFU/ml, the “T7d (CFU/ml)” value is 1.7 × 10^6 CFU/ml, the “T14d (CFU/ml)” value was 5.8 × 10^5 CFU/ml and the “T21d (CFU/ml)” value is listed as 7.3 × 10^7 CFU/ml. In assay [6] (0.5 mg/ml), the “T28d (CFU/ml)” value was 6.5 × 10^7 CFU/ml. In assay [6] (2 mg/ml), the “T0 (CFU/ml)” value is reported as 9.1 × 10^5 CFU/ml, the “T7d (CFU/ml)” value is 1.1 × 10^6 CFU/ml, the “T14d (CFU/ml)” value is listed as 2.3 × 10^6 CFU/ml and the “T21d (CFU/ml)” value is recorded as 1.2 × 10^5 CFU/ml. The “T28d (CFU/ml)” value in assay [6] (2 mg/ml) is on record as 3.8 × 10^3 CFU/ml. Moreover, in assay [6] (5 mg/ml), the “Inhibiting action on the growth of Candida albicans ATCC 2091, in words” value is given as “significant inhibiting action”; the “T0 (CFU/ml)” value is recorded as 8.1 × 10^5 CFU/ml; the “T7d (CFU/ml)” value is 3.1 × 10^5 CFU/ml; the “T14d (CFU/ml)” value is 8.5 × 10^3 CFU/ml. Besides, the “T21d (CFU/ml)” value in assay [6] (5 mg/ml) is 5 × 10^1 CFU/ml. For the same molecule, in assay [7] (0.5 mg/ml), the “T0 (CFU/ml)” value was 9.6 × 10^5 CFU/ml, the “T7d (CFU/ml)” value is given as 1.2 × 10^6 CFU/ml, the “T14d (CFU/ml)” value was 2.1 × 10^7 CFU/ml and the “T21d (CFU/ml)” value is 2.4 × 10^4 CFU/ml. In addition, the “T28d (CFU/ml)” value in assay [7] (0.5 mg/ml) is 9.8 × 10^3 CFU/ml. Also, in assay [7] (2 mg/ml), the “T0 (CFU/ml)” value is on record as 5.9 × 10^5 CFU/ml, the “T7d (CFU/ml)” value is listed as 1.1 × 10^6 CFU/ml, the “T14d (CFU/ml)” value is on record as 1.9 × 10^6 CFU/ml and the “T21d (CFU/ml)” value is 9.2 × 10^3 CFU/ml. Moreover, in assay [7] (2 mg/ml), the “T28d (CFU/ml)” value is 9.8 × 10^3 CFU/ml. Moreover, in assay [7] (5 mg/ml), the “Inhibiting action on the growth of Pseudomonas aeruginosa ATCC 9027, in words” value is on record as “significant inhibiting action”; the “T0 (CFU/ml)” value is given as 3.6 × 10^5 CFU/ml; the “T7d (CFU/ml)” value is reported as 9.8 × 10^5 CFU/ml; the “T14d (CFU/ml)” value was 1.1 × 10^5 CFU/ml. For the same molecule, in assay [7] (5 mg/ml), the “T21d (CFU/ml)” value is on record as 2.5 × 10^3 CFU/ml and the “T28d (CFU/ml)” value is 9 × 10^1 CFU/ml.

Regarding `C[C@@H]1O[C@@H](O[C@@H]2[C@@H](O)[C@H](OCCc3ccc(O)c(O)c3)O[C@H](CO)[C@H]2OC(=O)/C=C/c2ccc(O)c(O)c2)[C@H](O[C@@H]2O[C@H](CO)[C@H](O)[C@H](O)[C@H]2O)[C@H](O)[C@H]1O` [Teupolioside, teupolioside], the “Lipid peroxidation (IC50)” value in assay [1] (means of 6 independent assays) was determined as 9.4 µg/mL. Also, in assay [2] (10^6 WBC, PMA 10 nM, 30 min, 37° C.), the IC50 was 0.5 mg/mL (≈ 636 µM). The “Cu^2+ (Keq, M^−1)” value in assay [3] (setting [8]) was 80000 ± 30000 M⁻¹. Moreover, the “Ni^2+ (Keq, M^−1)” value in assay [4] (setting [8]) was 2658 ± 365 M⁻¹. Also, in assay [5], the “Test L-tyrosine-DOPA inhibitory activity (%)” value is on record as 29.6%. For the same molecule, the “Anti-microbial activity on Candida albicans ATCC 2091, comparison in words” value in assay [6] is “activity similar to isoteupolioside”. Further, in assay [6] (5 mg/ml), the “Inhibiting action on the growth of Candida albicans ATCC 2091, in words” value is “significant inhibiting action”. Moreover, in assay [7], the “Anti-microbial activity on Pseudomonas aeruginosa ATCC 9027, comparison in words” value is “activity similar to isoteupolioside”. In addition, in assay [7] (5 mg/ml), the “Inhibiting action on the growth of Pseudomonas aeruginosa ATCC 9027, in words” value is recorded as “significant inhibiting action”.
